This note sets out measurements from the NIST ThermoML archive (doi:10.1021/je060354r).

Numbers after ± are expanded uncertainties.

A short description of this data set: Boiling temperature at pressure P. Conditions: 100 kPa; Liquid; Ebulliometric method (Recirculating still).

For `CC(C)O` [propan-2-ol], the “Boiling temperature at pressure P” value came to 81.86 ± 0.22 °C.
